Structures can show the parent of a compound that is named as a salt.

As to `CN1CCCC1CCSc1ccncc1` (stereo not drawn) (as salt: hydrochloride) [A = C, B = N, R1, R2, R4, R5 = H, D = absent, E = —S—, G = —] [2-[2-(4-Pyridine)thioethyl]-1-methylpyrrolidine], the melting point (usually the temperature, or range, at which the solid turns liquid) was 186.5 to 187.5 °C.

Compound `CN1C2CCC1CC(Sc1ccccn1)C2` (stereo not drawn) (as salt: hydrochloride) [3-[Endo-(2-Pyridine)thio]-8-methyl-8-azabbicyclo[3.2.1]octane] displayed a melting point of 201 to 205 °C.

`CN1C2CCC1CC(SCc1ccccn1)C2` (stereo not drawn) (as salt: hydrochloride) had a melting point of 204 to 206 °C.

The values above are taken from US6632823B1, “Substituted pyridine compounds useful as modulators of acetylcholine receptors” (Merck & Co., Inc., priority 1997, dated 2003).
